Measured values taken from patent US20120309796A1, “BENZOCYCLOHEPTENE ACETIC ACIDS” (priority 2011, published 2012).

Biological target: T1, human CRTH2 (Homo sapiens, UniProt Q9Y5Y4)
T1 sequence (Q9Y5Y4 1-395): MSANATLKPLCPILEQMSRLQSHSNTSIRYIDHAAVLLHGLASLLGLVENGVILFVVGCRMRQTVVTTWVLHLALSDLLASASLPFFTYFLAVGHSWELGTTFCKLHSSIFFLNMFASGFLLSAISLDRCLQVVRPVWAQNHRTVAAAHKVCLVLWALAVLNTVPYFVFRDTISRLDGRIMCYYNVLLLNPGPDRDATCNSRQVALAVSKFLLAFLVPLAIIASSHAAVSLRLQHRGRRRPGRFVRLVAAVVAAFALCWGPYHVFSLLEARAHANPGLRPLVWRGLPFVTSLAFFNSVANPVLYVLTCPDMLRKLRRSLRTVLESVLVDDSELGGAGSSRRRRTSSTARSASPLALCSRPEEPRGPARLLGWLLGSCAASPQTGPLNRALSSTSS
Assay: Calcium Flux Assay Using Fluorometric Imaging Plate Reader (FLIPR)
Type: cell-based
Design: expressed in transfected cells; host or cells: CHO-K1 previously transfected with G-alpha 16
Conditions: CHO-K1 cells with G-alpha 16 and human CRTH2; inhibition of DK-PGD2 ligand-induced Ca2+ flux
Experimental: CHO-K1 cells previously transfected with G-alpha 16 were subsequently transfected with the human CRTH2 receptor and the neomycin resistance gene. Following selection in 800 μg/mL G418 (geneticin), individual clones were assayed for their receptor expression based on staining with an anti human CRTH2 IgG, followed by assaying for their response to 13,14-dihydro-15-keto Prostaglandin D2 (DK-PDG2) (ligand) in the Ca^2+ Flux assay. Positive clones were then cloned by limiting dilution cloning. The transfected cells were cultured in Ham's F-12 medium supplemented with 10% fetal bovine serum, 2 mM glutamine, 100 U/mL penicillin/100 μg/mL streptomycin, 200 μg/mL hygromycin B, and 800 μg/mL G418 (geneticin). Cells were harvested with trypsin-EDTA (trypsin-ethylenediaminetetraacetic acid) and counted using ViaCount® reagent (from Guava Technologies, Inc. which contains two DNA-binding dyes that enable the reagent user to distinguish between viable and non-viable cells). The cell suspension volume was adjusted to 2.5×10^5 cells/mL with complete growth media. Aliquots of 50 μL were dispensed into BD Falcon™ 384 well black/clear microplates (from BD Biosciences, a division of Becton, Dickinson and Company) and the microplates were placed in a 37° C. CO2 incubator overnight. The following day, the microplates were used in the assay.
Loading Buffer containing dye (from the FLIPR® Calcium 3 Assay Kit from Molecular Devices, a division of MDS Analytical Technologies and MDS Inc.) was prepared by dissolving the contents of one bottle into 200 mL Hank's Balanced Salt Solution containing 20 mM HEPES (4-(2-hydroxyethyl)-1-piperazineethanesulfonic acid) and 2.5 mM probenecid. Growth media was removed from the cell plates and 25 μL of Hank's Balanced Salt Solution (HBSS) containing 20 mM HEPES, 0.05% BSA and 2.5 mM probenecid was added to each well followed by 25 μL of diluted dye using a Multidrop dispenser. The plates were then incubated for 1 hour at 37° C.
During the incubation, test compound plates were prepared by adding 90 μL of HBSS/20 mM HEPES/0.005% BSA buffer to the 2 μL of serial diluted compounds. To prepare serial diluted compounds, 20 mM stocks of compounds were dissolved in 100% DMSO. The compound dilution plate was set up as follows: well #1 received 5 μL of compound plus 10 μL of DMSO. Wells 2-10 received 10 μL of DMSO. 5 μL was mixed and transferred from well #1 into well #2. 1:3 serial dilutions were continued out 10 steps. 2 μl of diluted compound was transferred into duplicate wells of a 384 well “assay plate” and then 90 μL of buffer was added.
After incubation, both the cell and “assay plate” plates were brought to the fluorometric imaging plate reader (FLIPR®) and 20 μL of the diluted compounds were transferred to the cell plates by the FLIPR®. Plates were then incubated for 1 hour at room temperature. After the 1 hour incubation, plates were returned to the FLIPR® and 20 μL of 4.5× concentrated ligand was added to the cell plates. During the assay, fluorescence readings were taken simultaneously from all 384 wells of the cell plate every 1.5 seconds. Five readings were taken to establish a stable baseline, then 20 μL of sample was rapidly (30 μL/sec) and simultaneously added to each well of the cell plate. The fluorescence was continuously monitored before, during and after sample addition for a total elapsed time of 100 seconds. Responses (increase in peak fluorescence) in each well following agonist addition were determined. The initial fluorescence reading from each well, prior to ligand stimulation, was used as a zero baseline value for the data from that well. The responses were expressed as % inhibition of the buffer control. […]

| IC50 [nM] | SMILES |
| --- | --- |
| 188 | O=C(O)COc1cccc2c1CCCCC2NS(=O)(=O)c1cc(C(F)(F)F)cc(C(F)(F)F)c1 (single isomer, unassigned) [Example 46, [5-(3,5-Bis-trifluoromethyl-benzenesulfonylamino)-6,7,8,9-tetrahydro-5H-benzocyclohepten-1-yloxy]-acetic acid] |
| 114 | O=C(O)COc1cccc2c1CCCCC2NS(=O)(=O)c1cc(C(F)(F)F)cc(C(F)(F)F)c1 (centres unmarked) [Example 1, [5-(3,5-Bis-trifluoromethyl-benzenesulfonylamino)-6,7,8,9-tetrahydro-5H-benzocyclohepten-1-yloxy]-acetic acid] |
